# Read-outs that look alike come from different tables or passages of the source.
# Assays:
# [1] = Compatibility in the case of the sheep; details: in vivo; for MTD at 336 h: single dose into the rumen, 14 days observation, read-out: MTD (maximum tolerated dose)
# Method: (§1) The active substances are introduced in the form of a suspension, by means of a stomach probe or by injection, into the rumen of the experimental animals. Three to five sheep are used per test and per dose, each animal being treated with just one single dose. The sheep are kept under observation during 14 days after the treatment, and they are weighed at regular intervals. Any clinical symptoms and cases of death occurring are recorded during this period. Similar sheep (with regard to breed, age and weight) which have not been treated with the respective active substance are kept as control animals together with the treated experimental animals. The same parameters are recorded in the case of the control sheep as in the case of the treated sheep. The minimum effective dose (MED) of 25 mg/kg (see Table) in the case of the compound of formula I is effective in sheep not only against Fasciola hepatica but also against nematodes such as Haemonchus concortus, Trichostrongylus colubriformis and Ostertagia circumcincta, and against cestodes such as Moniezia benedeni.
# Fasciola hepatica = test: Test on sheep infested with Fasciola hepatica; format: in vivo, Fasciola hepatica (host: sheep); details: for minimal effective dose: Fasciola hepatica
# Text: The active substance is introduced in the form of a suspension, by means of a stomach probe or by injection, into the rumen of sheep which have been artificially infested with Fasciola hepatica. Three animals are used per test and per dose, each animal being treated with just one single dose. An initial evaluation is made by comparing the numbers of worm eggs excreted in the droppings of the sheep before and after the treatment. The sheep are killed and dissected three to four weeks after the treatment. The second evaluation is on the basis of a count of the liver flukes which have remained behind in the hepatic ducts after the treatment. Simultaneously and similarly infested but untreated sheep are used as a control or comparison. The difference in the numbers of liver flukes in the two groups is a measure of the degree of effectiveness of the active substance tested.
# as §1
# [2] = tested on: parasitic helminths, especially Nematodes and Trematodes; test: anthelmintic activity against parasitic helminths, various test models; format: in vivo
# Schistosoma mansoni = test: schistosomiasis: Schistosoma mansoni in mice and Syrian hamsters; format: in vivo, Schistosoma mansoni (host: mice and Syrian hamsters)
# Moniezia benedeni = test: Test on sheep infested with cestodes: Moniezia benedeni; format: in vivo, Moniezia benedeni (host: sheep); details: read-out: minimum effective dose (MED), effective also against Moniezia benedeni
# Text: The active substance is introduced in the form of a suspension, by means of a stomach probe or by injection, into the rumen of sheep which are infested with cestodes such as Moniezia benedeni. Three animals are used per test and per dose, each sheep being treated with just one single dose. The sheep are killed and dissected seven to ten days after the treatment. The evaluation is made on the basis of a count of the worms which have remained behind in the intestine after the treatment. Sheep which have been simultaneously and similarly infested but not treated with the active substance are used as a control or comparison.
# Dipetalonea viteae = test: filariasis: Dipetalonea viteae in Mongolian jirds and multimammate rats; format: in vivo
# Haemonchus contortus = test: Test on sheep infected with nematodes: Haemonchus contortus; format: in vivo, Haemonchus contortus (host: sheep); details: read-out: minimum effective dose (MED), effective also against Haemonchus concortus
# Text: (§2) The active substance is introduced in the form of a suspension by means of a stomach probe, or by injection, into the rumen of sheep which have been artificially infested with nematodes such as Haemonchus controtus and Trichostrongylus colubriformis. Three animals are used per test and per dose, each sheep being treated with just one single dose. An initial evaluation is made by comparing the numbers of worm eggs excreted in the dropping of the sheep before and after the treatment. Seven to ten days after the treatment, the sheep are killed and dissected. A second evaluation is then made by carrying out a count of the worm which have remained behind in the intestine after the treatment. Sheep which have been simultaneously and similarly infested but not treated with the active substance are used as a control or comparison.
# Schistosoma japonicum = test: schistosomiasis: Schistosoma japonicum in dogs; format: in vivo, Schistosoma japonicum (host: dogs)
# Brugia pahangi = test: filariasis: Brugia pahangi in multimammate rats; format: in vivo, Brugia pahangi (host: multimammate rats)
# Ostertagia circumcincta = test: Test on sheep infected with nematodes: Ostertagia circumcincta; format: in vivo, Ostertagia circumcincta (host: sheep); details: Teladorsagia circumcincta, read-out: minimum effective dose (MED), effective also against Ostertagia circumcincta
# Text: as §2
# Brugia malayi = test: filariasis: Brugia malayi in multimammate rats; format: in vivo, Brugia malayi (host: multimammate rats)
# Nipprostrongylus species = test: gastro-intestinal helminths: tests with various Nipprostrongylus species; format: in vivo; details: compound and its non-toxic salts
# [3] = tested on: Trichostrongylus colubriformis; test: Test on sheep infected with nematodes: Trichostrongylus colubriformis; format: in vivo, Trichostrongylus colubriformis (host: sheep); details: read-out: minimum effective dose (MED), effective also against Trichostrongylus colubriformis
# Text: as §2
# Litomosoides carinii = test: filariasis: Litomosoides carinii in Mongolian jirds and multimammate rats; format: in vivo
# [4] = read-out: MED (minimum effective dose)
structure (smiles),measurement,setting,value
"CC(C)(C)c1nc2ccc(N=C=S)cc2s1 [No. 2, reference compound]",MTD at 336 h,[1],200 mg/kg
same,minimal effective dose,Fasciola hepatica; [4],100 mg/kg
"COc1cc2nc(C(C)C)sc2cc1N=C=S [No. 3, reference compound]",MTD at 336 h,[1],200 mg/kg
same,minimal effective dose,Fasciola hepatica; [4],> 100 mg/kg
"CC(C)c1nc2ccc(N=C=S)cc2s1 [No. 4, reference compound]",MTD at 336 h,[1],200 mg/kg
same,minimal effective dose,Fasciola hepatica; [4],> 200 mg/kg
"COc1cc2nc(C(C)(C)C)sc2cc1N=C=S [compound of the formula I, 6-isothiocyano-5-methoxy-2-tert.-butyl-benzothiazole]",anthelmintic properties,[2]; general,generally good anthelmintic properties
same,"activity against filariasis, schistosomiasis and gastro-intestinal helminths",[2]; various test models,excellent activity
same,anthelminthic activities against a broad variety of parasitic helminths,"[2]; warm-blooded organisms, compound and non-toxic salts",extremely potent anthelminthic activities
same,antischistosomal effects,Schistosoma mansoni,pronounced antischistosomal effects
same,minimal effective dose,Moniezia benedeni,25 mg/kg
same,selectivity ratio,"[1]; liver flukes, read-out: therapeutic index (maximum tolerated dose/minimum effective dose)",~13
same,MTD at 336 h,[1],320 mg/kg
same,"potency against filariasis, micro- and macrofilariae",Dipetalonea viteae,pronounced potency
same,minimal effective dose,Haemonchus contortus,25 mg/kg
same,antischistosomal effects,Schistosoma japonicum,pronounced antischistosomal effects
same,"potency against filariasis, micro- and macrofilariae",Brugia pahangi,pronounced potency
same,minimal effective dose,Ostertagia circumcincta,25 mg/kg
same,"potency against filariasis, micro- and macrofilariae",Brugia malayi,pronounced potency
same,properties against gastro-intestinal helminths,Nipprostrongylus species,surprising properties against gastro-intestinal helminths
same,minimal effective dose,Fasciola hepatica; [4],25 mg/kg
same,action against liver flukes in sheep,Fasciola hepatica; sheep,excellent action against liver flukes in sheep
same,minimal effective dose,"Fasciola hepatica; sheep, read-out: minimum effective dose (MED)",25 mg/kg
same,minimal effective dose,[3],25 mg/kg
same,"potency against filariasis, micro- and macrofilariae",Litomosoides carinii,pronounced potency
